Results reported in patent US6794386B2, “β-amino acid compounds as integrin antagonists” (Bayer Aktiengesellschaft, priority 2000, dated 2004).

The compounds below were run against T1, VLA-4 (Homo sapiens, UniProt P05556+P13612) (assay: Adhesion of Jurkat cells to immobilized VCAM-1 (domains 1-3)). Conditions: adhesion of CFSE-labeled Jurkat cells to recombinant human VCAM-1 (domains 1-3) coated plates; compounds as yielded by solid phase synthesis, purity about 40-90%; read-out: IC50.
T1 construct: host or cells: Jurkat clone E6-1
Type: cell-based
Outline: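 CFSE-labelled Jurkat E6-1 cells in Tris buffer pH 7.4 with 2 mM MnCl2 were added to wells coated with insect-cell-expressed human VCAM-1 domains 1-3 (0.5 μg/ml coating solution); labelled cells were incubated for 30 min at 37 °C with the VLA-4 inhibitor.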

T1 sequence (P13612 34-1032): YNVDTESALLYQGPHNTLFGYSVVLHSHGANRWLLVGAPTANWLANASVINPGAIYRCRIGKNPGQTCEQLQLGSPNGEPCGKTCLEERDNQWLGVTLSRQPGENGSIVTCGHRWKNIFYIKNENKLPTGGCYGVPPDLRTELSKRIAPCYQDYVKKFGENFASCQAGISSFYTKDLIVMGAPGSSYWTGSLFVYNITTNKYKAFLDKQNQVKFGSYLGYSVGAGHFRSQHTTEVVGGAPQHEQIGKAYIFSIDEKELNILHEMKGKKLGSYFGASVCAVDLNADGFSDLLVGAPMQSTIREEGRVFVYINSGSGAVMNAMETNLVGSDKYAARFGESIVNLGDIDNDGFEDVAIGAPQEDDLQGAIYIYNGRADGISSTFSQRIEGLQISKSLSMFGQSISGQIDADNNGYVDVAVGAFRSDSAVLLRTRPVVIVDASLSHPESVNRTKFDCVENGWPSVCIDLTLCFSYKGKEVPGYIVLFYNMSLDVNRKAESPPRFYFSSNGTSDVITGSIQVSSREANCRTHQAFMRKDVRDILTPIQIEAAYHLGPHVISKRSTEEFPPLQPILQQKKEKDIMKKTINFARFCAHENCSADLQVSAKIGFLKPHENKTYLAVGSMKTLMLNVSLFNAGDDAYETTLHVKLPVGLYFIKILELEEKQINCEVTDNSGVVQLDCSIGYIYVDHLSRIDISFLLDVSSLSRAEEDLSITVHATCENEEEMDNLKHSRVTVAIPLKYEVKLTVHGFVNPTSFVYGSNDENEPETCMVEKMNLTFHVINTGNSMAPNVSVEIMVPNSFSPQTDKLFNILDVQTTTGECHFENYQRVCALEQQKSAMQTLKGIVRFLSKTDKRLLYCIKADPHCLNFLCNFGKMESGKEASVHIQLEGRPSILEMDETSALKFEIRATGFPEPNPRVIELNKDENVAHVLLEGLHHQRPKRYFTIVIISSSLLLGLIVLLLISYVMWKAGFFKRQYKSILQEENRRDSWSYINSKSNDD
T1 sequence (P05556 21-798): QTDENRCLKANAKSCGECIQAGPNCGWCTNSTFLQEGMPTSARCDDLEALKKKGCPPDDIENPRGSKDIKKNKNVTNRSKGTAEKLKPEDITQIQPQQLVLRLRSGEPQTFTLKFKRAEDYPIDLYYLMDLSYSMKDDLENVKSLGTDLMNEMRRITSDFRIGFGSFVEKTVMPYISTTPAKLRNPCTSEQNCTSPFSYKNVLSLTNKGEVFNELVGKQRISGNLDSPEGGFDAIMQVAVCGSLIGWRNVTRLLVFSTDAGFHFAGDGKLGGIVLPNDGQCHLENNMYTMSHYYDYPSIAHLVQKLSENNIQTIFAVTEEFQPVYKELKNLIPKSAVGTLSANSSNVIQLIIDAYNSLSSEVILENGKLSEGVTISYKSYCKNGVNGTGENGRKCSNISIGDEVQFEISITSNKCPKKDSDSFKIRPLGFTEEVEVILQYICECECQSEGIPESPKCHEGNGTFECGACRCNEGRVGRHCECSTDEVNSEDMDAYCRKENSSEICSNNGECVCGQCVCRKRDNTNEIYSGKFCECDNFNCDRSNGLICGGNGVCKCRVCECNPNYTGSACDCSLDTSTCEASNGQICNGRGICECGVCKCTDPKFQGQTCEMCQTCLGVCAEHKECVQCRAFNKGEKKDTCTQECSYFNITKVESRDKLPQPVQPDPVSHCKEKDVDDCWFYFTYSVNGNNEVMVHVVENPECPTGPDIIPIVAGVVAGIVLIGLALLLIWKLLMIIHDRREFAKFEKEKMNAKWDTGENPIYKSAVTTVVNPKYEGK

| IC50 | Compound |
| --- | --- |
| ≤ 500 nM | COc1ccccc1C(=O)N1CCCC(C(=O)N[C@@H](Cc2ccc(NC(=O)N3CCOCC3)cc2)C(=O)O)C1 (stereo partly drawn) [Example 4.22] |
| 500 to 2000 nM | COc1ccc(CC(=O)N2CCCC(C(=O)N[C@H](Cc3ccc(NC(=O)N4CCc5ccccc5C4)cc3)C(=O)O)C2)cc1 (stereo partly drawn) [Example 4.23] |
| 500 to 2000 nM | COc1ccccc1C(=O)N1CCCC(C(=O)N[C@@H](Cc2ccc(NC(=O)NC3CCN(Cc4ccccc4)CC3)cc2)C(=O)O)C1 (stereo partly drawn) [Example 4.24] |
| ≤ 500 nM | O=C(N[C@@H](Cc1ccc(NC(=O)N2CCOCC2)cc1)C(=O)O)C1CCCN(C(=O)Cc2cccs2)C1 (stereo partly drawn) [Example 4.25] |
| 2000 to 10000 nM | O=C(Nc1ccc(C[C@H](NC(=O)C2CCCN(C(=O)Cc3ccccc3)C2)C(=O)O)cc1)NC1CCN(Cc2ccccc2)CC1 (stereo partly drawn) [Example 4.26] |
| ≤ 500 nM | COc1ccccc1C(=O)N1CCCC(C(=O)N[C@@H](Cc2ccc(NC(=O)N3CCc4ccccc4C3)cc2)C(=O)O)C1 (stereo partly drawn) [Example 4.27] |
| 500 to 2000 nM | CN1CCN(C(=O)Nc2ccc(C[C@H](NC(=O)C3CCCN(S(=O)(=O)Cc4ccccc4)C3)C(=O)O)cc2)CC1 (stereo partly drawn) [Example 4.28] |
| 500 to 2000 nM | CS(=O)(=O)N1CCCC(C(=O)N[C@@H](Cc2ccc(NC(=O)N3CCN(C(c4ccccc4)c4ccccc4)CC3)cc2)C(=O)O)C1 (stereo partly drawn) [Example 4.31] |
| 2000 to 10000 nM | Cc1ccc(S(=O)(=O)N2CCCC(C(=O)N[C@@H](Cc3ccc(NC(=O)NC4CCN(Cc5ccccc5)CC4)cc3)C(=O)O)C2)cc1 (stereo partly drawn) [Example 4.32] |
| 500 to 2000 nM | Cc1ccc(S(=O)(=O)N2CCCC(C(=O)N[C@@H](Cc3ccc(NC(=O)N4CCN(C(c5ccccc5)c5ccccc5)CC4)cc3)C(=O)O)C2)cc1 (stereo partly drawn) [Example 4.35] |
| 2000 to 10000 nM | O=C(NCC(c1ccccc1)c1ccccc1)Nc1ccc(C[C@H](NC(=O)C2CCCN(S(=O)(=O)c3cccs3)C2)C(=O)O)cc1 (stereo partly drawn) [Example 4.36] |
| 500 to 2000 nM | CS(=O)(=O)N1CCCC(C(=O)N[C@@H](Cc2ccc(NC(=O)N3CCN(c4ccccc4)CC3)cc2)C(=O)O)C1 (stereo partly drawn) [Example 4.37] |
| 2000 to 10000 nM | O=C(N[C@@H](Cc1ccc(NC(=O)N2CCc3ccccc3C2)cc1)C(=O)O)C1CCCN(S(=O)(=O)c2ccc3ccccc3c2)C1 (stereo partly drawn) [Example 4.39] |
| 2000 to 10000 nM | COc1ccc(S(=O)(=O)N2CCCC(C(=O)N[C@@H](Cc3ccc(NC(=O)NC4CCN(Cc5ccccc5)CC4)cc3)C(=O)O)C2)cc1OC (stereo partly drawn) [Example 4.40] |
| ≤ 500 nM | O=C(N[C@@H](Cc1ccc(NC(=O)N2CCCCC2)cc1)C(=O)O)C1CCCN(S(=O)(=O)c2ccc3ccccc3c2)C1 (stereo partly drawn) [Example 4.41] |
| 500 to 2000 nM | O=C(N[C@@H](Cc1ccc(NC(=O)N2CCOCC2)cc1)C(=O)O)C1CCCN(S(=O)(=O)Cc2ccccc2)C1 (stereo partly drawn) [Example 4.44] |
| ≤ 500 nM | Cc1ccc(S(=O)(=O)N2CCCC(C(=O)N[C@@H](Cc3ccc(NC(=O)N4CCN(c5ccccc5)CC4)cc3)C(=O)O)C2)cc1 (stereo partly drawn) [Example 4.46] |

| IC50 | Compound |
| --- | --- |
| 500 to 2000 nM | O=C(N[C@@H](Cc1ccc(NC(=O)N2CCN(c3ccccc3)CC2)cc1)C(=O)O)C1CCCN(S(=O)(=O)Cc2ccccc2)C1 (stereo partly drawn) [Example 4.47] |
| ≤ 500 nM | O=C(N[C@@H](Cc1ccc(NC(=O)N2CCOCC2)cc1)C(=O)O)C1CCCN(C(=O)c2ccccc2F)C1 (stereo partly drawn) [Example 4.49] |
| ≤ 500 nM | O=C(N[C@@H](Cc1ccc(NC(=O)N2CCN(c3ccccc3)CC2)cc1)C(=O)O)C1CCCN(C(=O)c2ccccc2F)C1 (stereo partly drawn) [Example 4.50] |
| ≤ 500 nM | CN1CCN(C(=O)Nc2ccc(C[C@H](NC(=O)C3CCCN(C(=O)c4ccccc4F)C3)C(=O)O)cc2)CC1 (stereo partly drawn) [Example 4.51] |
| 500 to 2000 nM | O=C(N[C@@H](Cc1ccc(NC(=O)N2CCc3ccccc3C2)cc1)C(=O)O)C1CCCN(C(=O)C2CCCCC2)C1 (stereo partly drawn) [Example 4.53] |
| 500 to 2000 nM | COc1ccccc1NC(=O)N1CCCC(C(=O)N[C@@H](Cc2ccc(NC(=O)N3CCCCC3)cc2)C(=O)O)C1 (stereo partly drawn) [Example 4.54] |
| 500 to 2000 nM | COc1ccccc1NC(=O)N1CCCC(C(=O)N[C@H](Cc2ccc(NC(=O)N3CCN(c4ccccc4)CC3)cc2)C(=O)O)C1 (stereo partly drawn) [Example 4.55] |
| 500 to 2000 nM | O=C(NCC(c1ccccc1)c1ccccc1)Nc1ccc(C[C@H](NC(=O)C2CCCN(C(=O)c3ccccc3F)C2)C(=O)O)cc1 (stereo partly drawn) [Example 4.56] |
| 500 to 2000 nM | CN1CCN(C(=O)Nc2ccc(C[C@H](NC(=O)C3CCCN(C(=O)Nc4ccccc4F)C3)C(=O)O)cc2)CC1 (stereo partly drawn) [Example 4.57] |
| 500 to 2000 nM | O=C(N[C@@H](Cc1ccc(NC(=O)N2CCOCC2)cc1)C(=O)O)C1CCCN(C(=O)Nc2ccc(-c3ccccc3)cc2)C1 (stereo partly drawn) [Example 4.59] |
| 500 to 2000 nM | O=C(N[C@@H](Cc1ccc(NC(=O)N2CCc3ccccc3C2)cc1)C(=O)O)C1CCCN(C(=O)Nc2ccccc2)C1 (stereo partly drawn) [Example 4.60] |
| 500 to 2000 nM | O=C(N[C@@H](Cc1ccc(NC(=O)N2CCOCC2)cc1)C(=O)O)C1CCCN(C(=O)Nc2ccccc2F)C1 (stereo partly drawn) [Example 4.61] |
| 500 to 2000 nM | CN1CCN(C(=O)Nc2ccc(C[C@H](NC(=O)C3CCCN(C(=O)NCc4ccccc4)C3)C(=O)O)cc2)CC1 (stereo partly drawn) [Example 4.62] |
| 500 to 2000 nM | COc1ccccc1NC(=O)N1CCCC(C(=O)N[C@@H](Cc2ccc(NC(=O)N3CCOCC3)cc2)C(=O)O)C1 (stereo partly drawn) [Example 4.63] |
| 2000 to 10000 nM | COc1ccccc1-c1ccc(C[C@H](NC(=O)C2CCCN(c3ncnc(NC4CCN(Cc5ccccc5)CC4)c3F)C2)C(=O)O)cc1 (stereo partly drawn) [Example 5.2] |
| 500 to 2000 nM | CN1CCN(C(=O)Nc2ccc(C[C@H](NC(=O)C3CCCN(c4ncnc(NCC(c5ccccc5)c5ccccc5)c4F)C3)C(=O)O)cc2)CC1 (stereo partly drawn) [Example 5.18] |

The next lines start with the compound.

| Compound | IC50 |
| --- | --- |
| O=C(N[C@@H](Cc1ccc(NC(=O)N2CCOCC2)cc1)C(=O)O)C1CCCN(S(=O)(=O)c2cc(Cl)cc(Cl)c2)C1 (stereo partly drawn) [Example 4.29] | ≤ 500 nM |
| O=C(N[C@@H](Cc1ccc(NC(=O)N2CCOCC2)cc1)C(=O)O)C1CCCN(S(=O)(=O)c2ccc3ccccc3c2)C1 (stereo partly drawn) [Example 4.30] | ≤ 500 nM |
| O=C(N[C@@H](Cc1ccc(NC(=O)N2CCc3ccccc3C2)cc1)C(=O)O)C1CCCN(S(=O)(=O)c2cccs2)C1 (stereo partly drawn) [Example 4.33] | ≤ 500 nM |
| COc1ccc(S(=O)(=O)N2CCCC(C(=O)N[C@@H](Cc3ccc(NC(=O)N4CCOCC4)cc3)C(=O)O)C2)cc1OC (stereo partly drawn) [Example 4.34] | ≤ 500 nM |
| COc1ccc(Cl)cc1S(=O)(=O)N1CCCC(C(=O)N[C@@H](Cc2ccc(NC(=O)N3CCN(c4ccccc4)CC3)cc2)C(=O)O)C1 (stereo partly drawn) [Example 4.38] | 500 to 2000 nM |
| O=C(N[C@@H](Cc1ccc(NC(=O)N2CCOCC2)cc1)C(=O)O)C1CCCN(S(=O)(=O)c2cccs2)C1 (stereo partly drawn) [Example 4.42] | ≤ 500 nM |
| Cc1ccc(S(=O)(=O)N2CCCC(C(=O)N[C@@H](Cc3ccc(NC(=O)N4CCOCC4)cc3)C(=O)O)C2)cc1 (stereo partly drawn) [Example 4.43] | ≤ 500 nM |
| COc1ccc(S(=O)(=O)N2CCCC(C(=O)N[C@@H](Cc3ccc(NC(=O)N4CCN(C(c5ccccc5)c5ccccc5)CC4)cc3)C(=O)O)C2)cc1OC (stereo partly drawn) [Example 4.45] | 500 to 2000 nM |
| COc1ccc(S(=O)(=O)N2CCCC(C(=O)NC(Cc3ccc(NC(=O)N4CCc5ccccc5C4)cc3)C(=O)O)C2)cc1OC (stereo not drawn) [Example 4.48] | ≤ 500 nM |
| CC(C)NC(=O)N1CCCC(C(=O)N[C@@H](Cc2ccc(NC(=O)N3CCOCC3)cc2)C(=O)O)C1 (stereo partly drawn) [Example 4.52] | ≤ 500 nM |
| O=C(N[C@@H](Cc1ccc(NC(=O)N2CCOCC2)cc1)C(=O)O)C1CCCN(C(=O)NC2CCCCC2)C1 (stereo partly drawn) [Example 4.58] | 500 to 2000 nM |
| COc1ccccc1-c1ccc(C[C@H](NC(=O)C2CCCN(c3ncnc(NCCc4c[nH]cn4)c3F)C2)C(=O)O)cc1 (stereo partly drawn) [Example 5.3] | 2000 to 10000 nM |
| COc1ccccc1-c1ccc(C[C@H](NC(=O)C2CCCN(c3ncnc(N)c3F)C2)C(=O)O)cc1 (stereo partly drawn) [Example 5.4] | 500 to 2000 nM |
| CN(C)CCNc1ncnc(N2CCCC(C(=O)N[C@H](Cc3ccc(NC(=O)N4CCN(C)CC4)cc3)C(=O)O)C2)c1F (stereo partly drawn) [Example 5.5] | 2000 to 10000 nM |
| O=C(N[C@@H](Cc1ccc(NC(=O)N2CCN(c3ccccc3)CC2)cc1)C(=O)O)C1CCCN(c2ncnc(NCCc3c[nH]cn3)c2F)C1 (stereo partly drawn) [Example 5.6] | 2000 to 10000 nM |
| COc1ccc(CCNc2ncnc(N3CCCC(C(=O)N[C@@H](Cc4ccc(NC(=O)N5CCN(C)CC5)cc4)C(=O)O)C3)c2F)cc1 (stereo partly drawn) [Example 5.7] | 500 to 2000 nM |
| O=C(N[C@@H](Cc1ccc(NC(=O)N2CCOCC2)cc1)C(=O)O)C1CCCN(c2ncnc(NCc3ccccc3)c2F)C1 (stereo partly drawn) [Example 5.8] | 500 to 2000 nM |
| O=C(N[C@@H](Cc1ccc(NC(=O)N2CCOCC2)cc1)C(=O)O)C1CCCN(c2ncnc(N3CCCC3)c2F)C1 (stereo partly drawn) [Example 5.9] | 2000 to 10000 nM |
| O=C(N[C@@H](Cc1ccc(NC(=O)N2CCN(c3ccccc3)CC2)cc1)C(=O)O)C1CCCN(c2ncnc(N3CCCC3)c2F)C1 (stereo partly drawn) [Example 5.10] | 2000 to 10000 nM |
| CN1CCN(C(=O)Nc2ccc(C[C@H](NC(=O)C3CCCN(c4ncnc(NCc5ccccc5)c4F)C3)C(=O)O)cc2)CC1 (stereo partly drawn) [Example 5.11] | 500 to 2000 nM |
| O=C(N[C@@H](Cc1ccc(NC(=O)N2CCOCC2)cc1)C(=O)O)C1CCCN(c2ncnc(N3CCN(c4ccccc4)CC3)c2F)C1 (stereo partly drawn) [Example 5.12] | 2000 to 10000 nM |
| CN1CCN(C(=O)Nc2ccc(C[C@H](NC(=O)C3CCCN(c4ncnc(N5CCCC5)c4F)C3)C(=O)O)cc2)CC1 (stereo partly drawn) [Example 5.13] | 2000 to 10000 nM |
| CN1CCN(C(=O)Nc2ccc(C[C@H](NC(=O)C3CCCN(c4ncnc(N5CCN(c6ccccc6)CC5)c4F)C3)C(=O)O)cc2)CC1 (stereo partly drawn) [Example 5.14] | 2000 to 10000 nM |
| CN(C)CCCNc1ncnc(N2CCCC(C(=O)N[C@@H](Cc3ccc(NC(=O)N4CCN(c5ccccc5)CC4)cc3)C(=O)O)C2)c1F (stereo partly drawn) [Example 5.15] | 2000 to 10000 nM |
| COCCNc1ncnc(N2CCCC(C(=O)N[C@@H](Cc3ccc(NC(=O)N4CCc5ccccc5C4)cc3)C(=O)O)C2)c1F (stereo partly drawn) [Example 5.16] | 2000 to 10000 nM |
| O=C(N[C@@H](Cc1ccc(NC(=O)N2CCN(c3ccccc3)CC2)cc1)C(=O)O)C1CCCN(c2ncnc(N3CCSCC3)c2F)C1 (stereo partly drawn) [Example 5.17] | 500 to 2000 nM |
| O=C(N[C@@H](Cc1ccc(NC(=O)N2CCN(c3ccccc3)CC2)cc1)C(=O)O)C1CCCN(c2ncnc(NCC(c3ccccc3)c3ccccc3)c2F)C1 (stereo partly drawn) [Example 5.19] | 500 to 2000 nM |
